Assay: Solubility comparison of crystal modifications of the compound of the formula (I)
Assay type: physicochemical
Conditions: modification II versus known modification (modification I)

**Q.** Which “solubility in comparison to the known modification” value does the source give for `O=C(NC[C@H]1CN(c2ccc(N3CCOCC3=O)cc2)C(=O)O1)c1ccc(Cl)s1` [modification II, 5-chloro-N-({(5S)-2-oxo-3-[4-(3-oxo-4-morpholinyl)-phenyl]-1,3-oxazolidin-5-yl}-methyl)-2-thiophenecarboxamide] here?
**A.** higher solubility

— patent US8188270B2, “Polymorphous form of 5-chloro-N-({(5S)-2-oxo-3[4-(3-oxo-4-morpholinyl)-phenyl]-1,3-oxazolidine-5-yl}-methyl)-2-thiophene carboxamide” (Bayer Schering Pharma Aktiengesellschaft, priority 2005, dated 2012)
